# According to ChEMBL document CHEMBL4308841, “Synthesis, in vitro antiproliferative activity, and kinase inhibitory effects of pyrazole-containing diarylureas and diarylamides” (Eur J Med Chem, 2018):
# Tests used:
# Type in all cases: functional
# MDA-MB-468 = assay: Growth inhibition of human MDA-MB-468 cells assessed as cell growth at 10 uM incubated for 48 hrs by sulforhodamine B assay relative to control; conditions: MDA-MB-468, 48 h, read-out: Activity
# OVCAR-3 = assay: Growth inhibition of human OVCAR3 cells assessed as cell growth at 10 uM incubated for 48 hrs by sulforhodamine B assay relative to control; conditions: OVCAR-3, 48 h, read-out: Activity
# SNB-19 = assay: Growth inhibition of human SNB19 cells assessed as cell growth at 10 uM incubated for 48 hrs by sulforhodamine B assay relative to control; conditions: SNB-19, 48 h, read-out: Activity
# MOLT-4 = assay: Growth inhibition of human MOLT4 cells assessed as cell growth at 10 uM incubated for 48 hrs by sulforhodamine B assay relative to control; conditions: MOLT-4, 48 h, read-out: Activity
# BT-549 = assay: Growth inhibition of human BT549 cells assessed as cell growth at 10 uM incubated for 48 hrs by sulforhodamine B assay relative to control; conditions: BT-549, 48 h, read-out: Activity
# HL-60(TB) = assay: Growth inhibition of human HL-60(TB) cells assessed as cell growth at 10 uM incubated for 48 hrs by sulforhodamine B assay relative to control; conditions: HL-60, 48 h, read-out: Activity
# SR = assay: Growth inhibition of human SR cells assessed as cell growth at 10 uM incubated for 48 hrs by sulforhodamine B assay relative to control; conditions: read-out: Activity
# SF-295 = assay: Growth inhibition of human SF295 cells assessed as cell growth at 10 uM incubated for 48 hrs by sulforhodamine B assay relative to control; conditions: SF-295, 48 h, read-out: Activity
# UACC-257 = assay: Growth inhibition of human UACC257 cells assessed as cell growth at 10 uM incubated for 48 hrs by sulforhodamine B assay relative to control; conditions: UACC-257, 48 h, read-out: Activity
# SF-539 = assay: Growth inhibition of human SF539 cells assessed as cell growth at 10 uM incubated for 48 hrs by sulforhodamine B assay relative to control; conditions: SF-539, 48 h, read-out: Activity
# A498 = assay: Growth inhibition of human A498 cells assessed as cell growth at 10 uM incubated for 48 hrs by sulforhodamine B assay relative to control; conditions: A498, 48 h, read-out: Activity
# KM12 = assay: Growth inhibition of human KM12 cells assessed as cell growth at 10 uM incubated for 48 hrs by sulforhodamine B assay relative to control; conditions: KM12, 48 h, read-out: Activity
# SK-MEL-28 = assay: Growth inhibition of human SK-MEL-28 cells assessed as cell growth at 10 uM incubated for 48 hrs by sulforhodamine B assay relative to control; conditions: SK-MEL-28, 48 h, read-out: Activity
# A549 = assay: Growth inhibition of human A549/ATCC cells assessed as cell growth at 10 uM incubated for 48 hrs by sulforhodamine B assay relative to control; conditions: A549, 48 h, read-out: Activity
# CCRF-CEM = assay: Growth inhibition of human CCRF-CEM cells assessed as cell growth at 10 uM incubated for 48 hrs by sulforhodamine B assay relative to control; conditions: read-out: Activity
# IGROV-1 = assay: Growth inhibition of human IGROV1 cells assessed as cell growth at 10 uM incubated for 48 hrs by sulforhodamine B assay relative to control; conditions: IGROV-1, 48 h, read-out: Activity
# UACC-62 = assay: Growth inhibition of human UACC62 cells assessed as cell growth at 10 uM incubated for 48 hrs by sulforhodamine B assay relative to control; conditions: UACC-62, 48 h, read-out: Activity
# T47D = assay: Growth inhibition of human T47D cells assessed as cell growth at 10 uM incubated for 48 hrs by sulforhodamine B assay relative to control; conditions: read-out: Activity
# DU-145 = assay: Growth inhibition of human DU145 cells assessed as cell growth at 10 uM incubated for 48 hrs by sulforhodamine B assay relative to control; conditions: DU-145, 48 h, read-out: Activity
# U-251 = assay: Growth inhibition of human U251 cells assessed as cell growth at 10 uM incubated for 48 hrs by sulforhodamine B assay relative to control; conditions: U-251, 48 h, read-out: Activity
# OVCAR-5 = assay: Growth inhibition of human OVCAR5 cells assessed as cell growth at 10 uM incubated for 48 hrs by sulforhodamine B assay relative to control; conditions: OVCAR-5, 48 h, read-out: Activity
# SK-OV-3 = assay: Growth inhibition of human SKOV3 cells assessed as cell growth at 10 uM incubated for 48 hrs by sulforhodamine B assay relative to control; conditions: SK-OV-3, 48 h, read-out: Activity
# K562 = assay: Growth inhibition of human K562 cells assessed as cell growth at 10 uM incubated for 48 hrs by sulforhodamine B assay relative to control; conditions: K562, 48 h, read-out: Activity
# NCI-H226 = assay: Growth inhibition of human NCI-H226 cells assessed as cell growth at 10 uM incubated for 48 hrs by sulforhodamine B assay relative to control; conditions: NCI-H226, 48 h, read-out: Activity
# PC-3 = assay: Growth inhibition of human PC3 cells assessed as cell growth at 10 uM incubated for 48 hrs by sulforhodamine B assay relative to control; conditions: PC-3, 48 h, read-out: Activity
# HCT-116 = assay: Growth inhibition of human HCT116 cells assessed as cell growth at 10 uM incubated for 48 hrs by sulforhodamine B assay relative to control; conditions: HCT-116, 48 h, read-out: Activity
# SNB-75 = assay: Growth inhibition of human SNB75 cells assessed as cell growth at 10 uM incubated for 48 hrs by sulforhodamine B assay relative to control; conditions: SNB-75, 48 h, read-out: Activity
# NCI/ADR-RES = assay: Growth inhibition of human NCI/ADR-RES cells assessed as cell growth at 10 uM incubated for 48 hrs by sulforhodamine B assay relative to control; conditions: read-out: Activity
# MDA-MB-231 = assay: Growth inhibition of human MDA-MB-231 cells assessed as cell growth at 10 uM incubated for 48 hrs by sulforhodamine B assay relative to control; conditions: MDA-MB-231, 48 h, read-out: Activity
# NCI-H322M = assay: Growth inhibition of human NCI-H322M cells assessed as cell growth at 10 uM incubated for 48 hrs by sulforhodamine B assay relative to control; conditions: read-out: Activity
# RPMI-8226 = assay: Growth inhibition of human RPMI8226 cells assessed as cell growth at 10 uM incubated for 48 hrs by sulforhodamine B assay relative to control; conditions: RPMI-8226, 48 h, read-out: Activity
# ACHN = assay: Growth inhibition of human ACHN cells assessed as cell growth at 10 uM incubated for 48 hrs by sulforhodamine B assay relative to control; conditions: read-out: Activity
# HOP-62 = assay: Growth inhibition of human HOP62 cells assessed as cell growth at 10 uM incubated for 48 hrs by sulforhodamine B assay relative to control; conditions: HOP-62, 48 h, read-out: Activity
Compound,growth at 10 µM (MDA-MB-468) [%],growth at 10 µM (OVCAR-3) [%],growth at 10 µM (SNB-19) [%],growth at 10 µM (MOLT-4) [%],growth at 10 µM (BT-549) [%],growth at 10 µM (HL-60(TB)) [%],growth at 10 µM (SR) [%],growth at 10 µM (SF-295) [%],growth at 10 µM (UACC-257) [%],growth at 10 µM (SF-539) [%],growth at 10 µM (A498) [%],growth at 10 µM (KM12) [%],growth at 10 µM (SK-MEL-28) [%],growth at 10 µM (A549) [%],growth at 10 µM (CCRF-CEM) [%],growth at 10 µM (IGROV-1) [%],growth at 10 µM (UACC-62) [%],growth at 10 µM (T47D) [%],growth at 10 µM (DU-145) [%],growth at 10 µM (U-251) [%],other results
COc1cc(Cl)cc(-c2nn(-c3cccc(NC(=O)c4cccc(C(F)(F)F)c4)c3)cc2-c2ccncc2)c1,47,52.3,82.2,29,89.5,67.3,29.1,37.9,68.7,64.2,21.2,43.7,70.3,39.1,42.3,80.7,74.5,36.6,83.8,49.2,growth at 10 µM (OVCAR-5): 84%; growth at 10 µM (SK-OV-3): 81.6%; growth at 10 µM (K562): 26%; growth at 10 µM (NCI-H226): 69%; growth at 10 µM (PC-3): 23.1%; growth at 10 µM (HCT-116): 34.1%; growth at 10 µM (SNB-75): 53.9%; growth at 10 µM (NCI/ADR-RES): 46.6%; growth at 10 µM (MDA-MB-231): 21.4%; growth at 10 µM (NCI-H322M): 78.6%; growth at 10 µM (RPMI-8226): 31.5%; growth at 10 µM (ACHN): 48.1%; growth at 10 µM (HOP-62): 71.6%
O=C(Nc1cccc(-n2cc(-c3ccncc3)c(-c3cc(O)cc(Cl)c3)n2)c1)c1cc(C(F)(F)F)cc(C(F)(F)F)c1,31.2,15.2,63.1,19.5,73.4,21.4,3.15,15,71,75.5,40.3,21.2,63.6,27.3,26.9,73,69.3,26.3,62.1,37.2,growth at 10 µM (OVCAR-5): 70.7%; growth at 10 µM (SK-OV-3): 68.8%; growth at 10 µM (K562): 20.4%; growth at 10 µM (NCI-H226): 96%; growth at 10 µM (PC-3): 21.7%; growth at 10 µM (HCT-116): 24.6%; growth at 10 µM (SNB-75): 52.7%; growth at 10 µM (NCI/ADR-RES): 46.9%; growth at 10 µM (MDA-MB-231): -34.6%; growth at 10 µM (NCI-H322M): 74.1%; growth at 10 µM (RPMI-8226): 32.1%; growth at 10 µM (ACHN): 37.7%; growth at 10 µM (HOP-62): 58.3%
COc1cc(Cl)cc(-c2nn(-c3cccc(NC(=O)Nc4ccc(Cl)c(C(F)(F)F)c4)c3)cc2-c2ccncc2)c1,-14.4,-22.6,28.1,-9.68,9.81,-9.59,-27.5,-7.48,-25.9,-1.17,-9.18,9.1,23.6,5.2,1.88,30.2,6.62,8.1,15.2,-48.3,growth at 10 µM (OVCAR-5): 19.2%; growth at 10 µM (SK-OV-3): 11.9%; growth at 10 µM (K562): 8.93%; growth at 10 µM (NCI-H226): -2.82%; growth at 10 µM (PC-3): -13%; growth at 10 µM (HCT-116): 3.39%; growth at 10 µM (SNB-75): 14.5%; growth at 10 µM (NCI/ADR-RES): 6.07%; growth at 10 µM (MDA-MB-231): -30.8%; growth at 10 µM (NCI-H322M): 18.7%; growth at 10 µM (RPMI-8226): -29.1%; growth at 10 µM (ACHN): 8.78%; growth at 10 µM (HOP-62): 13.5%
COc1cc(Cl)cc(-c2nn(-c3cccc(NC(=O)c4ccc(N5CCOCC5)c(C(F)(F)F)c4)c3)cc2-c2ccncc2)c1,50.2,69.4,75.5,38.3,73,2.73,18.4,2.6,63.5,52.1,31.4,38.4,53.2,45.5,31.7,96.5,67.8,49.2,93.3,32.3,growth at 10 µM (OVCAR-5): 78.4%; growth at 10 µM (SK-OV-3): 75.7%; growth at 10 µM (K562): 4.03%; growth at 10 µM (NCI-H226): 64.2%; growth at 10 µM (PC-3): 29.1%; growth at 10 µM (HCT-116): 47.8%; growth at 10 µM (SNB-75): 34.9%; growth at 10 µM (NCI/ADR-RES): 46.1%; growth at 10 µM (MDA-MB-231): 11.4%; growth at 10 µM (NCI-H322M): 89.6%; growth at 10 µM (RPMI-8226): 25.2%; growth at 10 µM (ACHN): 50.1%; growth at 10 µM (HOP-62): 52.1%
